According to patent publication US10537541B2, “Treatment of focal segmental glomerular sclerosis (FSGS) using therapeutically effective oral doses of 10-nitro-9(E)-octadec-9-enoic acid” (Complexa, Inc., priority 2015, dated 2020):
Like-named read-outs stand apart in the source and are kept apart here.

Columns and labels:
[1] = system: deoxycorticosterone acetate (DOCA)/salt-induced model of FSGS; assay: DOCA/salt-induced mouse model of FSGS: renoprotection, body weight, blood pressure, organ/body weight ratios; assay type: in vivo, mice (129/sv strain); settings: DOCA/salt mice
Experimental: 10-nitro-9(E)-octadec-9-enoic acid, given orally after onset of renal injury, was evaluated for efficacy in a model for Focal Segmental Glomerular Sclerosis (FSGS) in humans. […] Mice were uni-nephrectomized and, after two weeks, implanted subcutaneously with DOCA (50 mg, 21-day release) or placebo sustained release pellets, with pellet replacement 3 weeks later. All groups, except the sham control group, also received 1% NaCl in tap water. 10-nitro-9(E)-octadec-9-enoic acid (daily oral gavage, 2.5 or 12.5 mg/kg) or enalapril (20 mg/kg/day in drinking water) treatments began 2 weeks after the first DOCA implantation and continued for 4 weeks. Enalapril was included for comparison because it is used as standard of care for FSGS and this is a positive control for the model.
Induction of model: Male mice (129/sv strain) were purchased from Taconic Labs. The animals were uninephrectomized (Unx) at 6 weeks of age by the vendor and shipped one week after surgery. At 2 weeks post Unx, a DOCA or placebo pellet (21-day release pellets, 50 mg/pellet, Innovative Research of America, Sarasota, Fla.) was implanted s.c. All mice were then placed on a semisynthetic diet which contained a moderate fat content and a low phytoestrogen/anti-oxidant level, which approximates a normal human diet (4). A second DOCA or placebo pellet was implanted three weeks later.
Treatment: Mice were treated with placebo, 10-nitro-9(E)-octadec-9-enoic acid at a dose of 2.5 and 12.5 mg/kg, or enalapril (standard of care) for 4 weeks by oral gavage starting 2 weeks after the first DOCA implantation. One percent NaCl in tap water was given to each group except the sham control group. Body weight was measured weekly, and doses were readjusted based on the current body weight. Urine and blood samples were collected prior to treatment and at week 2 and 4 of treatment. Mice were terminated at week 4. Data is presented as the mean+SEM for the number of animals listed in each group.

[2] = system: obese male subjects; assay: Multiple ascending dose study in obese males: safety and tolerability; assay type: in vivo, human; settings: for GI adverse events, number (percentage) of subjects / General Disorders adverse events, number (percentage) of subjects / Muscle and CT disorders adverse events, number (percentage) of subjects / Nervous System adverse events, number (percentage) of subjects / Skin and SQ disorders adverse events, number (percentage) of subjects: n = 10
Source text: (§1) The primary endpoints of this study included safety and tolerability, pharmacokinetics, and biomarkers. The safety and tolerability included physical examinations, adverse event (AE) reporting, vital signs (blood pressure, heart rate, respiratory rate), clinical laboratory values (hematology, biochemistry, and urinalysis) including serum magnesium and creatine phosphokinase (CPK), 12-lead electrocardiograms (ECGs) for safety assessments and QTcF measured on ECGs extracted from cardiac Holter monitoring. The pharmacokinetic measurements included maximum observed plasma drug concentration (Cmax), time to maximum plasma drug concentration (Tmax), terminal phase half-life (t½), area under the plasma drug concentration versus time curve (AUC0-last, AUC0-∞), clearance (CL/F), volume of distribution (Vd/F) and terminal elimination rate constant (λz).
(§2) This was a single-center, randomized, double-blind, placebo-controlled study of sequential multiple ascending doses of oral CXA-10 in obese male subjects. Eligible subjects included obese males age 19 to 57 years and BMI 27.0 to 39.5 kg/m^2. CXA-10 and placebo were provided as solutions in hard shell capsules. Three (3) cohorts of subjects were dosed once daily with CXA-10 for 14 days. The doses administered in this study were 25, 150 and 450 mg. Subjects enrolled in the highest dose level (450 mg) were administered 600 mg on day 1 then 450 mg for 13 days. This cohort (cohort 3) was given the option to receive an additional 450 mg dose on day 15 with a high fat (50%) breakfast.
Each cohort of subjects was randomized to receive CXA-10 (10 subjects) or placebo (4 or 5 subjects). Safety, pharmacokinetic (PK) and pharmacodynamic (PD) assessments were evaluated throughout the study. The last study visit occurred on Day 28. All subjects remained in the unit during the treatment period and were discharged approximately 24 hours after the last dose was administered. Food restrictions were incorporated to minimize variability in biomarker evaluation and body weight.
(§3) Subjects remained at the unit until discharge on Day 15 after assessments were completed and reviewed. […] They remained in the unit until Day 16 (24 h after last dose on Day 15) before being discharged from the unit. The additional procedures on Day 15 and Day 16 were optional for subjects in cohort 3.
Safety and tolerability was evaluated throughout the study. Continuous Holter monitoring was performed on Days −1 and on Day 14 in all three cohorts. Continuous Holter monitoring could also be performed at highest dose cohort on an additional day between Days 2 and 4. The decision to conduct Holter monitoring and the actual day of the additional monitoring was determined based on emerging data.

[3] = Multiple ascending dose study in obese males: pharmacokinetics; assay type: in vivo, human; settings: for plasma concentration Day 21 / plasma concentration Day 28: after 14 days dosing; for Tmax: male, human, plasma, oral, 450 mg, read-out: Median Tmax
Source text: as §1, §2, §3
Full PK profiles were obtained on Days 1 and 14. For subjects in cohort 3 who participate in the additional procedures on Day 15, full PK profiles were obtained on Days 1, 14, and 15. An abbreviated PK profile could also be obtained for the highest dose cohort only on one additional day. The actual day of PK sampling coincided with the additional day of Holter monitoring for the highest dose cohort. Subjects returned on Day 21 and Day 28 for PK, safety, and biomarker assessments.

[4] = system: adriamycin-induced nephropathy model; settings: continually infused at disease onset; cited from earlier work
[5] = Cohort 1, 25 mg once daily 14 days
[6] = Cohort 2, 150 mg once daily 14 days
[7] = Cohort 3, 450 mg once daily (600 mg on day 1)
[8] = obese males, 25-450 mg once daily
[9] = cohort 3, day 15 with high fat (50%) breakfast versus fasted

Q: Which results are given for `CCCCCCCC/C(=C\CCCCCCCC(=O)O)[N+](=O)[O-]` [CXA-10, 10-nitro-9(E)-octadec-9-enoic acid]?
A: renal protector (renoprotective effect) ([1]; 2.5 mg/kg/day oral gavage): highly effective as a renal protector; body weight gains ([1]; 10-nitro-9(E)-octadec-9-enoic acid 2.5 or 12.5 mg/kg p.o. or enalapril 20 mg/kg/d, 4 weeks): unaffected; kidney/body weight and heart/body ratios ([1]; low dose 2.5 mg/kg p.o. QD, 4 weeks): reduced; HBG, HCT and RBC concentration during treatment compared to placebo treated subjects ([2]; 450 mg): slight decrease; GI related AEs: subjects with nausea ([2]; Cohort 1 (25 mg)): 1 subject had nausea subjects; GI adverse events, number (percentage) of subjects [2, 5]: 2 (20%); General Disorders adverse events, number (percentage) of subjects [2, 5]: 1 (10%); Muscle and CT disorders adverse events, number (percentage) of subjects [2, 5]: 2 (20%); Nervous System adverse events, number (percentage) of subjects [2, 5]: 0 (0%); Skin and SQ disorders adverse events, number (percentage) of subjects [2, 5]: 2 (20%); GI related AEs: subjects with diarrhea ([2]; Cohort 2 (150 mg)): 5 subjects had diarrhea: 1 subject had diarrhea ~2 hr; GI adverse events, number (percentage) of subjects [2, 6]: 5 (50%); General Disorders adverse events, number (percentage) of subjects [2, 6]: 0 (0%); Muscle and CT disorders adverse events, number (percentage) of subjects [2, 6]: 0 (0%); Nervous System adverse events, number (percentage) of subjects [2, 6]: 1 (10%); Skin and SQ disorders adverse events, number (percentage) of subjects [2, 6]: 0 (0%); GI related AEs: subjects with diarrhea ([2]; Cohort 3 (450 mg w food)): 3 subjects; GI related AEs: subjects with nausea ([2]; Cohort 3 (450 mg w food)): 1 subjects; GI related AEs: subjects with diarrhea ([2]; Cohort 3 (450 mg)): 9 subjects; GI related AEs: subjects with nausea ([2]; Cohort 3 (450 mg)): 4 subjects; GI adverse events, number (percentage) of subjects [2, 7]: 9 (90%); General Disorders adverse events, number (percentage) of subjects [2, 7]: 3 (30%); Muscle and CT disorders adverse events, number (percentage) of subjects [2, 7]: 2 (20%); Nervous System adverse events, number (percentage) of subjects [2, 7]: 4 (40%); Skin and SQ disorders adverse events, number (percentage) of subjects [2, 7]: 1 (10%); CPK (muscle enzyme) or magnesium serum levels [2, 8]: no abnormalities; QTc interval (routine ECG after dosing for 15 days; ECG extraction from continuous 24-hour Holter monitoring) [2, 8]: no prolongation of QTc interval; clinical laboratory, vital signs or ECG evaluations [2, 8]: no clinically significant findings; time to resolution of diarrhea ([2]; obese males, oral once daily): ≤ 4 h; intensity of diarrhea (grade) ([2]; obese males, did not worsen with increasing dose): grade 1 or 2; plasma concentration Day 21 ([3]; 25 mg cohort): 0.17 ng/mL; plasma concentration Day 28 ([3]; 25 mg cohort): 0 ng/mL; plasma concentration Day 21 ([3]; 150 mg cohort): 0.33 ng/mL; plasma concentration Day 28 ([3]; 150 mg cohort): (0.39 ng/mL; plasma concentration Day 21 ([3]; 450 mg cohort): 0.38 ng/mL; plasma concentration Day 28 ([3]; 450 mg cohort): 0.30 ng/mL; pharmacokinetics profiles (dose proportionality, accumulation) ([3]; 25, 150, 450 mg once daily, day 1 and day 14): dose proportional concentration-times with minimal accumulation; increase of AUC under fed conditions [3, 9]: about 1.7 fold; increase of Cmax under fed conditions [3, 9]: about 2 fold; Tmax ([3]; fasted conditions): 3 h; Tmax ([3]; fed conditions (high fat breakfast)): 6 h; podocyte number [4]: increase in podocyte number
